Measured values from ChEMBL document CHEMBL3639188, “Tyrosine kinase inhibitors” (2014).

Target: High affinity nerve growth factor receptor (Homo sapiens, UniProt P04629)
Assay: In Vitro Kinase Activity Assay: Compounds to be tested were dissolved in 100% DMSO in a range of concentrations from 10^-8 to 10^-3 M including negative control (DMSO), then diluted with Kinase Buffer (50 mM HEPES, pH 7.5, 1 mM EGTA, 10 mM MgCl2, 0.01% Tween-20, and 2 mM DTT, added fresh) to 4x the final concentration. The final curve included 11 concentrations (10^-11 to 10^-5 M) plus negative …

Sequence of High affinity nerve growth factor receptor (P04629 whole entry): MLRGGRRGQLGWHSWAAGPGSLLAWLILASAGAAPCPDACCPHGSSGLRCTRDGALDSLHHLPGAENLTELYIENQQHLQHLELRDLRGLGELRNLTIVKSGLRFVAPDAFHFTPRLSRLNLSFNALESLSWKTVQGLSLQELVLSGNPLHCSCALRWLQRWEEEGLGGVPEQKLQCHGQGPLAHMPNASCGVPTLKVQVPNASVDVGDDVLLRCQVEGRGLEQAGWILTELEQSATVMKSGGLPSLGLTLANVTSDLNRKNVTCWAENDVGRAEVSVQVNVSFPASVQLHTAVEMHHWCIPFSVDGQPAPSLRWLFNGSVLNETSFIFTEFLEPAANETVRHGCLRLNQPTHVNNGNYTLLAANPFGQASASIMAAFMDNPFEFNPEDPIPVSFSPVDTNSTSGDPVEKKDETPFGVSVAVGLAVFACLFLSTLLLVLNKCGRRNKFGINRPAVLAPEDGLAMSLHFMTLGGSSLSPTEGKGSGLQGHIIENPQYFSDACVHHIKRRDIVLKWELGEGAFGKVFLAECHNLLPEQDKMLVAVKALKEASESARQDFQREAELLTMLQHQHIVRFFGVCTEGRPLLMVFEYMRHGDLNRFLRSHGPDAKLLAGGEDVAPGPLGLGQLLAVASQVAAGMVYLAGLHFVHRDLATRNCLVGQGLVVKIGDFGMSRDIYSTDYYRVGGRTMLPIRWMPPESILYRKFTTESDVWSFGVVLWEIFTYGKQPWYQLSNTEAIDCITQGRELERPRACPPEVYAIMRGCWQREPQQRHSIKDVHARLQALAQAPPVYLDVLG

`CC(Cc1cc(F)ccc1F)Nc1cc[nH]c(=O)c1-c1nc2cc3c(cc2[nH]1)C(=O)N(C1CCN(C)CC1)C3=O` (stereo unspecified) was tested, and the IC50 was 6.35 nM.
